How the values were obtained:
human LXRα = target: T1, human LXRα (Homo sapiens, UniProt Q13133); experiment: Full-length hLXRα/hRXRα LXREx3 TK-Luc reporter assay in transfected CV-1 cells; type: cell-based; settings: 20 μM, 40 hours
T1 construct: expressed in transfected cells; host or cells: CV-1 cells
T1 sequence (Q13133 1-447): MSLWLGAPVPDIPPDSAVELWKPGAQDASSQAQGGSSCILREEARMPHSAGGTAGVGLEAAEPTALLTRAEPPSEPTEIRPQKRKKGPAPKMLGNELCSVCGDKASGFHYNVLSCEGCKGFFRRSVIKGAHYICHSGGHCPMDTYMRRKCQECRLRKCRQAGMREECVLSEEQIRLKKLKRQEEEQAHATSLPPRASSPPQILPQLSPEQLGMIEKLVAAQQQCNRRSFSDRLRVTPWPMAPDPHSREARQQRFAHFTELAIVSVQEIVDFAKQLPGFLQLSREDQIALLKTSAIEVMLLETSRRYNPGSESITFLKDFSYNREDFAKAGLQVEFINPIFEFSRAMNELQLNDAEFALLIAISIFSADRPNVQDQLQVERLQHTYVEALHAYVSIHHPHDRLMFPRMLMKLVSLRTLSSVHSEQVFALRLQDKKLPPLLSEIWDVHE
T1 sequence (P19793 1-462 partner): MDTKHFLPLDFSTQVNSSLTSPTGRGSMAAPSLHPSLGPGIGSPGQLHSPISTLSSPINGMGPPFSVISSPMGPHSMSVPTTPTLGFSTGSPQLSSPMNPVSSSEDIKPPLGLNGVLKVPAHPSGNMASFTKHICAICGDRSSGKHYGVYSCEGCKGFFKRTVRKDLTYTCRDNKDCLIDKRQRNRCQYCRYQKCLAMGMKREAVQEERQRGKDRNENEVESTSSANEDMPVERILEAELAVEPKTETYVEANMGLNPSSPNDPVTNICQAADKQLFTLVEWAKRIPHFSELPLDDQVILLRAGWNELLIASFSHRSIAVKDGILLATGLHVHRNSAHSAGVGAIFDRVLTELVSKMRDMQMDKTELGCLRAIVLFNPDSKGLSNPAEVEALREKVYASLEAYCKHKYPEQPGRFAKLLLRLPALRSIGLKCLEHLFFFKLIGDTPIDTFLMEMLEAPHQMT
Protocol: (§1) CV-1 cells were grown in DMEM supplemented with 10% resin-charcoal stripped fetal bovine serum, 50 U/ml penicillin G and 50 μg/ml streptomycin sulfate at 37° C. in 5% CO2. Cells were plated to 50-80% confluence one day prior to transfection using phenol red-free DMEM-FBS. The cells were transfected by lipofection using N-[1-(2,3-dioleoyloxy)propyl]-N,N,N-ammonium methyl sulfate according to manufacturer's instructions (Boehringer Mannheim).
(§2) Genes encoding the following full-length proteins, which are suitable for use in the studies described herein, were cloned into pCMX: human RXRα (Gene Bank accession X52773) and human LXRα (GenBank accession U22662). The cells were transfected with CMX-βgal and luciferase constructs. The CMX-βGal construct contained the ligand binding domain of human RXR (hRXRα) and the ligand binding domain of human LXRα (hLXRα) as indicated in FIG. 1. The luciferase reporter construct (LXREx3 TK-Luc) contained the herpes virus thymidine kinase promoter (−105/+51) linked to three copies of the response element LXRE. After transfection, the cells were treated with 20 μM of a synthetic azole test compound or vehicle alone for 40 hours in phenol red-free DMEM-FBS.

LXRβ = target: T2, LXRβ (Homo sapiens, UniProt P55055); experiment: Transient transfection assay Gal-LXRβ + RXR LBD, UASGx4 TK Luc reporter, CV-1 cells; type: cell-based; settings: 10 μM; for repression of LXRβ activity: approximately 40 hours, lipid-stripped serum; for less effective than Clotrimazole in repressing LXRβ: relative to Clotrimazole
T2 construct: expressed in transfected cells; host or cells: CV-1 cells
T2 sequence (P55055 222-460 limits assumed): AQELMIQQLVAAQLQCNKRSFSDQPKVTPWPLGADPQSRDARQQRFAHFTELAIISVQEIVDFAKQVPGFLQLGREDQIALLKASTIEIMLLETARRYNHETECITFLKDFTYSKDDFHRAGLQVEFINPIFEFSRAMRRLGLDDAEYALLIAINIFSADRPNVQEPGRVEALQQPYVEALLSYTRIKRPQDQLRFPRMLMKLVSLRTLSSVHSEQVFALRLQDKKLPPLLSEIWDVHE
T2 sequence (P19793 227-458 partner limits assumed): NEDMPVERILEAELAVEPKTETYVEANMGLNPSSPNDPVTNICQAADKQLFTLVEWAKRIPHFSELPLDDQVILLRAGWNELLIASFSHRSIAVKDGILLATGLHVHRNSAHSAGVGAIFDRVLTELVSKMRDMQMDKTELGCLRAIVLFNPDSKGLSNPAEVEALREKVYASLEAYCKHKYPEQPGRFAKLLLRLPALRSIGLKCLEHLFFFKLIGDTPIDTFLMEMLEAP
Protocol: (§3) Synthetic compounds were screened in an effort to find more specific LXR inhibitors. CV-1 cells were maintained and transfected using known methods. Forman et al., Cell 81: 687-693, 1995. CV-1 cells were transiently transfected with Gal-hLXRα, the RXR LBD, the UASGx4 TK Luc reporter and CMX-β-gal as an internal control, either in standard or in lipid-stripped serum. After transfection, cells were treated for approximately 40 hours with phenol red-free DMEM-FBS containing the indicated compounds at the following concentrations: T0901317 (100 nM), Clotrimazole (10 μM), S883417(10 μM) and S100250 (10 μM), unless otherwise specified. After exposure to ligand, the cells were harvested and assayed for luciferase and β-galactosidase activity. The luciferase activity was normalized to the internal β-galactosidase control (reporter activity).
(§4) The ability of these compounds to repress LXRα and LXRβ was compared by transfecting CV-1 cells with either the RXR LBD alone or the RXR LBD together with either Gal-LXRα or Gal-LXRβ.
(§5) Transfections were performed as described above, with increasing concentrations of Clotrimazole.

CV-1 cells = experiment: Cytotoxicity in transfected CV-1 cells; settings: T0901317 100 nM; Clotrimazole, S883417, S100250 10 μM; approximately 40 hours
Protocol: as §3

[1] = target: T3, LXRα-RXR heterodimers and receptor interaction domains of coactivator SRC1 (Homo sapiens, UniProt Q13133); experiment: LXR-coactivator association, VP-L-hLXRα / L-hRXRα / GAL4-SRC1 in CV-1 cells; type: cell-based; settings: 20 μM, coactivator GAL4-SRC1, CV-1 cells
T3 construct: expressed in transfected cells; host or cells: CV-1 cells
T3 sequence (Q13133 209-447 limits assumed): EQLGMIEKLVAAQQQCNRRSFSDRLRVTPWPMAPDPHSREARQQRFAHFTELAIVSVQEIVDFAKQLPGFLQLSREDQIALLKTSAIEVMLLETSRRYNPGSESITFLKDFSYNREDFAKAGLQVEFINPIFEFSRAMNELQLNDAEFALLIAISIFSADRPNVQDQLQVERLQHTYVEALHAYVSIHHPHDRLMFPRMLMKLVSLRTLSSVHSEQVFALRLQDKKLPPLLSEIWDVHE
T3 sequence (P19793 227-458 partner limits assumed): T2 sequence (P19793 227-458 partner limits assumed)
Protocol: as §1, §2
VP-L-hLXRα contains the transactivation domain of Herpes VP16, linked to the LBD of human LXRα, L-hRXRα is the LBD of human RXRα. UASGx4 TK-Luc was the reporter gene, and the assay additionally included the coactivator GAL4-SRC1. Treatment with 20 μM azole compound as indicated was able to inhibit interactions between LXRα-RXR heterodimers and the receptor interaction domains from the coactivator SRC1.

LXRα = target: T4, LXRα (Homo sapiens, UniProt Q13133); experiment: Transient transfection assay Gal-hLXRα + RXR LBD, UASGx4 TK Luc reporter, CV-1 cells; type: cell-based; settings: 10 μM; for repression of LXRα activity: approximately 40 hours, lipid-stripped serum; for less effective than Clotrimazole in repressing LXRα: relative to Clotrimazole
T4 construct: expressed in transfected cells; host or cells: CV-1 cells
T4 sequence (Q13133 209-447 limits assumed): T3 sequence (Q13133 209-447 limits assumed)
T4 sequence (P19793 227-458 partner limits assumed): T2 sequence (P19793 227-458 partner limits assumed)
Protocol: as §3, §4, §5

[2] = target: T5, ligand binding domain of LXRα-RXR heterodimers (Homo sapiens, UniProt Q13133); experiment: LXR ligand binding domain mediated activity, UASGx4 TK-Luc reporter in CV-1 cells; type: cell-based; settings: 20 μM
T5 construct: expressed in transfected cells; host or cells: CV-1 cells
T5 sequence (Q13133 209-447 limits assumed): T3 sequence (Q13133 209-447 limits assumed)
T5 sequence (P19793 227-458 partner limits assumed): T2 sequence (P19793 227-458 partner limits assumed)
Protocol: as §1
as §2, with “DMEM-FBS. After exposure to the candidate antagonist compounds, cells were harvested and assayed for luciferase and β-galactosidase activity.” for “DMEM-FBS.”
The reporter gene was UASGx4 TK-Luc.

[3] = tested on: SRE reporter (FAS proximal promoter); experiment: SRE reporter (FAS proximal promoter-luciferase) assay in CV-1 cells; type: cell-based
Protocol: Since LXR regulates SREBP-1c expression, LXR also should regulate activities downstream of SREBP-1c. To test this, CV-1 cells were transiently transfected with as in Example 6, but with the SRE or the SREm reporter, SREBP-1c-dependent reporter constructs consisting of the FAS proximal promoter linked to the luciferase gene. […] See Wang et al., Mol. Cell 3:543-553, 1999, the disclosures of which are hereby incorporated by reference. Cells then were treated as in Example 6 with the indicated compounds, Clotrimazole or 25-hydroxycholesterol (25-OH cholesterol). 25-OH cholesterol is known to repress the synthesis of SREBP-1c and is therefore used to eliminate the effects of this transcription factor on the FAS promoter (SRE).

## CC(=O)N1CCN(c2ccc(OCC3COC(Cn4ccnc4)(c4ccc(Cl)cc4Cl)O3)cc2)CC1 (stereo not drawn) [ketonazole]
Human LXRα
  antagonism of constitutive activation mediated by LXR (hLXRα activity, LXREx3 TK-Luc): inactive

## c1ccc(-c2cncn2C(c2ccccc2)(c2ccccc2)c2ccccc2)cc1 [S100250]
Human LXRα
  antagonism of constitutive activation mediated by LXR (hLXRα activity, LXREx3 TK-Luc): antagonize the constitutive activation mediated by LXR
LXRβ
  repression of LXRβ activity: repressed
  less effective than Clotrimazole in repressing LXRβ: approximately 50%
CV-1 cells
  cytotoxicity: No cytotoxicity
[1]
  inhibition of LXR-coactivator association: inhibition of LXR-coactivator association
LXRα
  repression of LXRα activity: repressed
  less effective than Clotrimazole in repressing LXRα: approximately 50%
[2]
  inhibition of constitutive activation by the LXRα-RXR ligand binding domain (UASGx4 TK-Luc): inhibit constitutive activation

## C[C@H](CCCC(C)(C)O)[C@H]1CC[C@H]2[C@@H]3CC=C4C[C@@H](O)CC[C@]4(C)[C@H]3CC[C@]12C [25-OH cholesterol, 25-hydroxycholesterol]
[3]; LXRα co-transfected (3-fold increase)
  LXRα induction of SRE reporter activity: prevented this induction
[3]; LXRβ co-expression (almost 2-fold increase)
  LXRβ induction of SRE reporter activity: prevented this induction
[3]; SREm reporter
  activity of reporter containing mutated SRE: no significant effects
[3]; absence of LXR
  repression of SRE reporter: 50%

## Cl.FC(F)(F)c1cccc(C(c2ccccc2)(c2ccccc2)n2ccnc2)c1 [S883417]
Human LXRα
  antagonism of constitutive activation mediated by LXR (hLXRα activity, LXREx3 TK-Luc): antagonize the constitutive activation mediated by LXR
LXRβ
  repression of LXRβ activity: repressed
  less effective than Clotrimazole in repressing LXRβ: approximately 50%
CV-1 cells
  cytotoxicity: No cytotoxicity
[1]
  inhibition of LXR-coactivator association: inhibition of LXR-coactivator association
LXRα
  repression of LXRα activity: repressed
  less effective than Clotrimazole in repressing LXRα: approximately 50%
[2]
  inhibition of constitutive activation by the LXRα-RXR ligand binding domain (UASGx4 TK-Luc): inhibit constitutive activation

— US20050009837A1, “Modulators of lipid metabolism and methods of use” (City of Hope, priority 2003, published 2005)
